What was measured:
AraC-PBAD = conditions: prior-art AraC-PBAD sensor, E. coli; cited from earlier work
[1] = tested on: ectoine-inducible system EutR/PeutB; test: E. coli-based ectoine biosensor (plasmid pEct-1), RFP reporter fluorescence response; format: cell-based
Protocol: (§1) The fluorescence and cell absorbance were measured at multiple time points. Freshly grown bacterial cells were used to inoculate 2 mL of MM containing appropriate antibiotics in 50-mL centrifuge tubes, and cell cultures were grown overnight at 200 rpm and 30 °C. To obtain logarithmically growing cells, E. coli and P. putida overnight cultures were diluted to 0.05 OD600, respectively, in 5 mL of fresh medium with antibiotic. After the cells were grown to an OD600 of 0.15-0.2, culture aliquots of 142.5 µL were transferred into flat and clear bottom black 96-well plate (Corning Incorporated) and 7.5 µL of ectoine or hydroxyectoine was added to each culture to the required final concentration. Absorbance and fluorescence of cultures were measured using an Infinite Nano+ microplate reader (Tecan). Multiple time point measurements were taken every 10 min over the course of 15-20 hours with a plate reader measuring RFP fluorescence at excitation and emission wavelengths set to 585 nm and 620 nm, respectively, and absorbance at 600 nm. Obtained fluorescence and absorbance values were corrected by subtracting the autofluorescence and absorbance of the culture medium. The absolute normalized fluorescence was determined dividing the fluorescence value by corresponding absorbance value.
The dose-response of biosensors was determined by using single time-point values of fluorescence and absorbance, which were obtained from the multiple time-point measurements 4 h after supplementation of ectoine or hydroxyectoine at different concentrations ranging from 0 to 5 mM. For all assays, the cultures of E. coli and P. putida were prepared as described above, and 142.5 µL of logarithmically growing cells, supplemented with 7.5 µL of ectoine or hydroxyectoine, were cultured in 96-well plate. The fluorescence and absorbance were measured using the same conditions and plate reader as indicated above.
The plasmid pEct-1 was used to characterize biosensor's response to exogenously added ectoine. Experiments were performed to determine the kinetics of induction establishing the time that is required for the system to respond to a change in the ectoine and the dose response of the system. To evaluate biosensor's response to the ectoine, the fluorescence output was quantified.
First, the time course experiments were performed in E. coli and P. putida. Accordingly, cells of both microorganisms harbouring the plasmid pEct-1, were cultivated in minimal medium (MM) at 200 rpm and 30° C (E. coli: Cm 50 mg/L; P. putida: Tet 12.5 mg/L), in the presence and absence of 1 mM ectoine; their optical density (OD600) and RFP fluorescence were monitored over time (Figure 3). In both microorganisms, the RFP expression above the level of the uninduced culture started with 60-90 minutes delay after addition of ectoine (Figure 3 and Figure 4) supporting the notion that the ectoine's catabolic product, the alpha-ADABA, as identified previously [Schultz et al (2017) Environ. Microbiol. 19(11), 4599-4619; Hermann et al (2021) Front. Microbiol. 12, 764731] is the effector that activates gene expression in P. putida. The fluorescence continued to increase throughout the course of 20-hour time course experiment. Importantly, the uninduced baseline (no ectoine) remained at 0 fluorescence units. […] Such "non-leaky" system helps improving the quantification accuracy of reporter fluorescence, but also can be used to control the gene expression that can be harmful or even toxic to a cell. […]

[2] = tested on: ectoine-inducible system EutR/PeutB; test: P. putida-based ectoine biosensor (plasmid pEct-1), RFP reporter fluorescence response; format: cell-based
Protocol: as §1
The dose-response of biosensors was determined by using single time-point values of fluorescence and absorbance, […] ranging from 0 to 5 mM. […] The fluorescence and absorbance were measured using the same conditions and plate reader as indicated above.
The plasmid pEct-1 was used to characterize biosensor's response to exogenously added ectoine. […] To evaluate biosensor's response to the ectoine, the fluorescence output was quantified.
First, the time course experiments were performed in E. coli and P. putida. […] The fluorescence continued to increase throughout the course of 20-hour time course experiment. Importantly, the uninduced baseline (no ectoine) remained at 0 fluorescence units. […]

[3] = E. coli, MM, 10 hours after supplementation, text does not separate the two hosts
[4] = MM, 10 hours after supplementation, text does not separate the two hosts

Question: Which results are given for `CC1=NC(C(=O)O)CCN1` (stereo not drawn) [ectoine, 1,4,5,6-tetrahydro-2-methyl-4-pyrimidinecarboxylic acid]?
Answer: minimal ectoine concentration needed for observable induction (AraC-PBAD): around 10 mM; delay of RFP expression above the level of the uninduced culture after addition of ectoine ([1]; 1 mM ectoine, MM, 30° C, E. coli): 60 to 90 min; fold lower minimal ectoine concentration needed for observable induction (applicant's sensor vs AraC-PBAD sensor) ([1]; E. coli expression organism): around 1000 fold; limit of detection [1, 3]: below 1 µM; range of linear fluorescence response to exogenously present ectoine [1, 3]: 1 to 20 µM; minimal effective concentration ([1]; Escherichia coli, applicant's sensor, E. coli expression organism, read-out: minimal ectoine concentration needed for observable induction): 1 µM; delay of RFP expression above the level of the uninduced culture after addition of ectoine ([2]; 1 mM ectoine, 30° C): 60 to 90 min; limit of detection [2, 4]: below 1 µM; range of linear fluorescence response to exogenously present ectoine [2, 4]: 1 to 20 µM
